{"source": "patent US4087548A", "about": "“Complement inhibitors” (American Cyanamid Company, priority 1976, dated 1978)", "key": {"[1]": {"system": "guinea pigs", "assay": "Forssman Shock Test", "format": "in vivo, guinea pig", "settings": "control = 3.15 minutes", "text": "(§1) This test measures the ability of activated human C1 to destroy fluid phase human C2 in the presence of C4 and appropriate dilutions of the test compound. An active inhibitor protects C2 from C1 and C4; (ii) Test, Code 035 (C3-C9 inhibitor) -- This test determines the ability of the late components of human complement (C3-C9) to lyse EAC 142 in the presence of appropriate dilutions of the test compound. An active inhibitor protects EAC 142 from lysis by human C3-C9; (iii) Test, Code 036 (C-Shunt inhibitor) -- In this test human erythrocytes rendered fragile are lysed in autologous serum via the shunt pathway activated by cobra venom factor in the presence of appropriate dilutions of the test compound. Inhibition of the shunt pathway results in failure of lysis; (iv) Forssman Vasculitis Test -- Here, the well known complement dependent lesion, Forssman vasculitis, is produced in guinea pigs by intradermal injection of rabbit anti-Forssman antiserum. The lesion is measured in terms of diameter, edema and hemorrhage and the extent to which a combined index of these is inhibited by prior intraperitoneal injection of the test compound at 200 mg/kg is then reported, unless otherwise stated; (v) Forssman Shock Test -- Lethal shock is produced in guinea pigs by an i.v. injection of anti-Forssman antiserum and the harmonic mean death time of treated guinea pigs is compared with that of simultaneous controls; (vi) Complement Level Reduction Test -- In this test, the above dosed guinea pigs, or others, are bled for serum and the complement level is determined in undiluted serum by the capillary tube method of U.S. Pat. No. 3,876,376 and compared to undosed control guinea pigs; and (vii) Cap 50 Test -- Here, appropriate amounts of the test compound are added to a pool of guinea pig serum in vitro, after which the undiluted serum capillary tube assay referred to above is run. The concentration of compound inhibiting 50% is reported.\n***Harmonic mean death time in minutes. (control = 3.15 minutes)."}, "[2]": {"system": "late components of human complement (C3-C9)", "assay": "Test, Code 035 (C3-C9 inhibitor), lysis of EAC 142", "format": "cell-based", "settings": "serial two-fold dilutions assay; higher well number indicates higher activity", "experimental": "as §1, with “An active inhibitor protects EAC 142 from lysis by human C3-C9; (iii) Test, Code 036 (C-Shunt inhibitor) -- In this test human erythrocytes rendered fragile are lysed in autologous serum via the shunt pathway activated by cobra venom factor in the presence of appropriate dilutions of the test compound. Inhibition of the shunt pathway results in failure of lysis; (iv) Forssman Vasculitis Test -- Here, the well known complement dependent lesion, Forssman vasculitis, is produced in guinea pigs by intradermal injection of rabbit anti-Forssman antiserum.” left out, “The concentration of compound inhibiting 50% is reported.” left out"}, "[3]": {"system": "shunt pathway activated by cobra venom factor", "assay": "Test, Code 036 (C-Shunt inhibitor), lysis of human erythrocytes in autologous serum", "format": "cell-based", "settings": "serial two-fold dilutions assay; higher well number indicates higher activity", "text": "as §1\n(§2) **Numbers represent activity in wells, a serial dilutions assay, higher\n(§3) well number indicates higher activity. The serial dilutions are two-fold."}, "[4]": {"target": "T1, activated human C1 (Homo sapiens, UniProt P09871)", "T1 construct": "C1s cleaved into disulfide-linked heavy and light chains; fluid-phase C2 consumption with C4", "T1 sequence (P09871 16-688)": "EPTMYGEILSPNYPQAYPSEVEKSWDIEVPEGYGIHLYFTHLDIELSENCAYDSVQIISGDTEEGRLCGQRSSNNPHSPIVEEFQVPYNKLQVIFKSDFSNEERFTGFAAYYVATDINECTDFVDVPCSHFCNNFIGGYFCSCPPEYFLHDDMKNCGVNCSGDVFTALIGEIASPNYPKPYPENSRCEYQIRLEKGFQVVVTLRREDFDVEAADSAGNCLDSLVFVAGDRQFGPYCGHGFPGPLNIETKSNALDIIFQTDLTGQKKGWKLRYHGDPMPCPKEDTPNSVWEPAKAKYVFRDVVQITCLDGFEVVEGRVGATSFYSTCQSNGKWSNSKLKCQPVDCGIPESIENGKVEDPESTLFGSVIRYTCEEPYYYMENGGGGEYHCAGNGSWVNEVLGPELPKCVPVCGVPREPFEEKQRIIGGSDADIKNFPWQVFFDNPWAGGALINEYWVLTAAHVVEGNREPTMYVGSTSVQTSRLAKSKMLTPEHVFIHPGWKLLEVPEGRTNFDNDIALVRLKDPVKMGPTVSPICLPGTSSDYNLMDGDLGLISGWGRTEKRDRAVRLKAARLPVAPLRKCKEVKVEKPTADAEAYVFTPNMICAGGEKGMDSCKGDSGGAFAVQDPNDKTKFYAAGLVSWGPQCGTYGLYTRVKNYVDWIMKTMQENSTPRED", "T1 sequence (P00736 18-705 partner)": "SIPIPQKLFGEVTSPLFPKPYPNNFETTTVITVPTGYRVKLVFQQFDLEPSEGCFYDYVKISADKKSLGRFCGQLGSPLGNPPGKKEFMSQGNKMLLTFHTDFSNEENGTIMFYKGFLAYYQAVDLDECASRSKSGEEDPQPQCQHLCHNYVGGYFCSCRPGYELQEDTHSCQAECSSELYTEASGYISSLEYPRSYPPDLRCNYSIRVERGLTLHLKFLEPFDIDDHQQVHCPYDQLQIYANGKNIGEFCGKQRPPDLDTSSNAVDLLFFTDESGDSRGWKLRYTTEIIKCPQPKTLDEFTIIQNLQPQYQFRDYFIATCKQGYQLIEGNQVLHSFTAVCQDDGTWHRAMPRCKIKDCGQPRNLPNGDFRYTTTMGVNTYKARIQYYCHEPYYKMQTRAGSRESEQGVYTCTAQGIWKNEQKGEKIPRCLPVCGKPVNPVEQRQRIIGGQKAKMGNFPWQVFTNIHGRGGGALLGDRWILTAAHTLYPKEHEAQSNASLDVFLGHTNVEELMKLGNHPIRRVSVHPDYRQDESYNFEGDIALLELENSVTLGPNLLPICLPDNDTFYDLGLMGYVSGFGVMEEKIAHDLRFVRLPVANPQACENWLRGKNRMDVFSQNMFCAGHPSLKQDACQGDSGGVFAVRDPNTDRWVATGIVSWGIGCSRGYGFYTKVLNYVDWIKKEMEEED", "T1 sequence (P02745 23-245 partner)": "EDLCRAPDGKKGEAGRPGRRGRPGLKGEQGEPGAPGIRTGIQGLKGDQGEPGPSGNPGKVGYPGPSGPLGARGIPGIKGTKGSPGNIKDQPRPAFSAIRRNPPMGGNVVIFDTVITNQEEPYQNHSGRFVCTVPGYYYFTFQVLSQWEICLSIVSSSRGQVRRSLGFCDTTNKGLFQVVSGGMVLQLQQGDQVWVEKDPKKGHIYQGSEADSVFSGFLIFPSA", "T1 sequence (P02746 28-253 partner)": "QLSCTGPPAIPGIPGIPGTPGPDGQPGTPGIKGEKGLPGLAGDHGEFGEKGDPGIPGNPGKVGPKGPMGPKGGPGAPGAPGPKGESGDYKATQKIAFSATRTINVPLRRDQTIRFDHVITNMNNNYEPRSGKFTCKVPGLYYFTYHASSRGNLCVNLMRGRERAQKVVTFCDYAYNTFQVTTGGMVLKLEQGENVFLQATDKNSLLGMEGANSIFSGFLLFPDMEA", "T1 sequence (P02747 29-245 partner)": "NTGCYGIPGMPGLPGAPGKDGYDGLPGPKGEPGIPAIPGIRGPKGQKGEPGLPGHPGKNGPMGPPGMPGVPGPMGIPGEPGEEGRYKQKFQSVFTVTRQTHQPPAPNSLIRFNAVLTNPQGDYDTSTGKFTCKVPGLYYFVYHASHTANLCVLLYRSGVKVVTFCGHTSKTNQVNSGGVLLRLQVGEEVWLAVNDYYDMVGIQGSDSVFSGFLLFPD", "assay": "Test, Code 026 (C1 inhibitor)", "format": "biochemical", "settings": "serial two-fold dilutions assay; higher well number indicates higher activity", "text": "as §1, §2, §3"}}, "note": "Structures can show the parent of a compound that is named as a salt.", "data": [{"compound": "O=C(Nc1cccc(C(=O)Nc2cc3c(S(=O)(=O)[O-])cc(S(=O)(=O)[O-])cc3cc2S(=O)(=O)[O-])c1)Nc1cccc(C(=O)Nc2cc3c(S(=O)(=O)[O-])cc(S(=O)(=O)[O-])cc3cc2S(=O)(=O)[O-])c1.[Na+].[Na+].[Na+].[Na+].[Na+].[Na+]", "note": "[7,7'-[Ureylenebis(m-phenylenecarbonylimino)]di-1,3,6-naphthalenetrisulfonic acid, hexasodium salt]", "values": [{"measurement": "Forssman Shock, harmonic mean death time", "setting": "[1]; route not given", "result": 14, "unit": "min"}, {"measurement": "Code 035 (activity in wells)", "setting": "[2]", "result": "+1 wells"}, {"measurement": "Code 036 (activity in wells)", "setting": "[3]", "result": "+1 wells"}]}, {"compound": "Nc1cccc(C(=O)Nc2cc3c(S(=O)(=O)[O-])cc(S(=O)(=O)[O-])cc3cc2S(=O)(=O)[O-])c1.[Na+].[Na+].[Na+]", "note": "[7-(m-Aminobenzamido)-1,3,6-naphthalenetrisulfonic acid, trisodium salt]", "values": [{"measurement": "Forssman Shock, harmonic mean death time", "setting": "[1]; route not given", "result": 33, "unit": "min"}]}, {"compound": "O=C(Nc1cc2c(S(=O)(=O)[O-])cc(S(=O)(=O)[O-])cc2cc1S(=O)(=O)[O-])c1cccc([N+](=O)[O-])c1.[Na+].[Na+].[Na+]", "note": "[7-m-Nitrobenzamido-1,3,6-naphthalenetrisulfonic acid, trisodium salt]", "values": [{"measurement": "Forssman Shock, harmonic mean death time", "setting": "[1]; route not given", "result": 20, "unit": "min"}]}, {"compound": "Cc1ccc(C(=O)Nc2cc(S(=O)(=O)O)cc3cc(S(=O)(=O)O)cc(S(=O)(=O)O)c23)cc1NC(=O)Nc1cc(C(=O)Nc2cc(S(=O)(=O)O)cc3cc(S(=O)(=O)O)cc(S(=O)(=O)O)c23)ccc1C", "note": "[8,8'-[Ureylenebis(4-methyl-m-phenylenecarbonylimino)]di-1,3,6-naphthalenetrisulfonic acid, hexasodium salt]", "values": [{"measurement": "Forssman Shock, harmonic mean death time", "setting": "[1]; i.p.", "result": 28, "unit": "min"}, {"measurement": "Forssman Shock, harmonic mean death time", "setting": "[1]; i.v.", "result": 46, "unit": "min"}]}, {"compound": "Cc1ccc(NC(=O)Nc2ccc(C)c(C(=O)Nc3cc(S(=O)(=O)O)cc4cc(S(=O)(=O)O)cc(S(=O)(=O)O)c34)c2)cc1C(=O)Nc1cc(S(=O)(=O)O)cc2cc(S(=O)(=O)O)cc(S(=O)(=O)O)c12", "note": "[8,8'-[Ureylenebis(6-methyl-m-phenylenecarbonylimino)]di-1,3,6-naphthalenetrisulfonic acid, hexasodium salt]", "values": [{"measurement": "Code 026 (activity in wells)", "setting": "[4]", "result": "+5 wells"}, {"measurement": "Forssman Shock, harmonic mean death time", "setting": "[1]; route not given", "result": 11, "unit": "min"}, {"measurement": "Code 035 (activity in wells)", "setting": "[2]", "result": "+4 wells"}]}, {"compound": "O=C(Nc1cccc(C(=O)Nc2cc(S(=O)(=O)[O-])cc3cc(S(=O)(=O)[O-])cc(S(=O)(=O)[O-])c23)c1)Nc1cccc(C(=O)Nc2cc(S(=O)(=O)[O-])cc3cc(S(=O)(=O)[O-])cc(S(=O)(=O)[O-])c23)c1.[Na+].[Na+].[Na+].[Na+].[Na+].[Na+]", "note": "[8,8'-[Ureylenebis(m-phenylenecarbonylimino)]di-1,3,6-naphthalenetrisulfonicacid, hexasodium salt]", "values": [{"measurement": "Code 026 (activity in wells)", "setting": "[4]", "result": "+6 wells"}, {"measurement": "Code 036 (activity in wells)", "setting": "[3]", "result": "+1 wells"}]}, {"compound": "O=C(Nc1ccc(C(=O)Nc2cc(S(=O)(=O)[O-])cc3cc(S(=O)(=O)[O-])cc(S(=O)(=O)[O-])c23)cc1)Nc1ccc(C(=O)Nc2cc(S(=O)(=O)[O-])cc3cc(S(=O)(=O)[O-])cc(S(=O)(=O)[O-])c23)cc1.[Na+].[Na+].[Na+].[Na+].[Na+].[Na+]", "note": "[8,8'-[Ureylenebis(p-phenylenecarbonylimino)]di-1,3,6-naphthalenetrisulfonicacid, hexasodium salt]", "values": [{"measurement": "Code 026 (activity in wells)", "setting": "[4]", "result": "+4 wells"}]}, {"compound": "Cc1ccc(C(=O)Nc2cc(S(=O)(=O)O)cc3cc(S(=O)(=O)O)cc(S(=O)(=O)O)c23)cc1NC(=O)C(=O)Nc1cc(C(=O)Nc2cc(S(=O)(=O)O)cc3cc(S(=O)(=O)O)cc(S(=O)(=O)O)c23)ccc1C", "note": "[8,8'-{Oxalylbis {{[imino(4-methyl-1,3-phenylene)]carbonyl}imino}}di-1,3,6-naphthalenetrisulfonic acid, hexasodium salt]", "values": [{"measurement": "Code 026 (activity in wells)", "setting": "[4]", "result": "+4 wells"}, {"measurement": "Code 036 (activity in wells)", "setting": "[3]", "result": "+3 wells"}]}, {"compound": "Cc1ccc(NC(=O)Nc2cc(S(=O)(=O)O)cc3cc(S(=O)(=O)O)cc(S(=O)(=O)O)c23)cc1NC(=O)Nc1cc(NC(=O)Nc2cc(S(=O)(=O)O)cc3cc(S(=O)(=O)O)cc(S(=O)(=O)O)c23)ccc1C", "note": "[8,8'-{Ureylenebis[(4-methyl-m-phenylene)ureylene]}di-1,3,6-naphthalenetrisulfonic acid, hexasodium salt]", "values": [{"measurement": "Code 026 (activity in wells)", "setting": "[4]", "result": "+4 wells"}, {"measurement": "Code 036 (activity in wells)", "setting": "[3]", "result": "+1 wells"}]}, {"compound": "Cc1ccc(C(=O)Nc2cc(S(=O)(=O)O)cc3cc(S(=O)(=O)O)cc(S(=O)(=O)O)c23)cc1N", "note": "[8-(3-Amino-p-toluamido)-1,3,6-naphthalenetrisulfonic acid, trisodium salt]", "values": [{"measurement": "Code 026 (activity in wells)", "setting": "[4]", "result": "+3 wells"}, {"measurement": "Forssman Shock, harmonic mean death time", "setting": "[1]; route not given", "result": 14, "unit": "min"}]}, {"compound": "Cc1ccc(C(=O)Nc2cc(S(=O)(=O)O)cc3cc(S(=O)(=O)O)cc(S(=O)(=O)O)c23)cc1[N+](=O)[O-]", "note": "[8-(3-Nitro-p-toluamido)-1,3,6-naphthalenetrisulfonic acid, trisodium salt]", "values": [{"measurement": "Code 026 (activity in wells)", "setting": "[4]", "result": "+2 wells"}, {"measurement": "Forssman Shock, harmonic mean death time", "setting": "[1]; route not given", "result": 25, "unit": "min"}]}, {"compound": "Cc1cc(C(=O)Nc2cc(S(=O)(=O)O)cc3cc(S(=O)(=O)O)cc(S(=O)(=O)O)c23)ccc1N", "note": "[8-(4-Amino-m-toluamido)-1,3,6-naphthalenetrisulfonic acid, trisodium salt]", "values": [{"measurement": "Code 026 (activity in wells)", "setting": "[4]", "result": "+3 wells"}, {"measurement": "Forssman Shock, harmonic mean death time", "setting": "[1]; route not given", "result": 14, "unit": "min"}]}, {"compound": "Cc1cc(C(=O)Nc2cc(S(=O)(=O)O)cc3cc(S(=O)(=O)O)cc(S(=O)(=O)O)c23)ccc1[N+](=O)[O-]", "note": "[8-(4-Nitro-m-toluamido)-1,3,6-naphthalenetrisulfonic acid, trisodium salt]", "values": [{"measurement": "Code 026 (activity in wells)", "setting": "[4]", "result": "+1 wells"}, {"measurement": "Forssman Shock, harmonic mean death time", "setting": "[1]; route not given", "result": 46, "unit": "min"}]}, {"compound": "Cc1ccc(N)cc1C(=O)Nc1cc(S(=O)(=O)O)cc2cc(S(=O)(=O)O)cc(S(=O)(=O)O)c12", "note": "[8-(5-Amino-o-toluamido)-1,3,6-naphthalenetrisulfonic acid, trisodium salt]", "values": [{"measurement": "Forssman Shock, harmonic mean death time", "setting": "[1]; route not given", "result": 14, "unit": "min"}]}, {"compound": "Nc1ccc(C(=O)Nc2cc(S(=O)(=O)[O-])cc3cc(S(=O)(=O)[O-])cc(S(=O)(=O)[O-])c23)cc1.[Na+].[Na+].[Na+]", "note": "[8-(p-Aminobenzamido)-1,3,6-naphthalenetrisulfonic acid, trisodium salt]", "values": [{"measurement": "Code 026 (activity in wells)", "setting": "[4]", "result": "+3 wells"}, {"measurement": "Forssman Shock, harmonic mean death time", "setting": "[1]; route not given", "result": 10, "unit": "min"}]}, {"compound": "Nc1cccc(C(=O)Nc2cccc(C(=O)Nc3cc(S(=O)(=O)[O-])cc4cc(S(=O)(=O)[O-])cc(S(=O)(=O)[O-])c34)c2)c1.[Na+].[Na+].[Na+]", "note": "[8-[m-(m-Aminobenzamido)benzamido]-1,3,6-naphthalene-trisulfonic acid, trisodium salt]", "values": [{"measurement": "Code 026 (activity in wells)", "setting": "[4]", "result": "+2 wells"}]}, {"compound": "O=C(Nc1cc(S(=O)(=O)[O-])cc2cc(S(=O)(=O)[O-])cc(S(=O)(=O)[O-])c12)c1ccc([N+](=O)[O-])cc1.[Na+].[Na+].[Na+]", "note": "[8-p-Nitrobenzamido-1,3,6-naphthalenetrisulfonic acid, trisodium salt]", "values": [{"measurement": "Code 026 (activity in wells)", "setting": "[4]", "result": "+1 wells"}, {"measurement": "Forssman Shock, harmonic mean death time", "setting": "[1]; route not given", "result": 13, "unit": "min"}]}, {"compound": "Cc1ccc(NC(=O)Nc2cccc(C(=O)Nc3cc(S(=O)(=O)[O-])cc4cc(S(=O)(=O)[O-])cc(S(=O)(=O)[O-])c34)c2)cc1[N+](=O)[O-].[Na+].[Na+].[Na+]", "note": "[8-{m-[3-(3-Nitro-p-tolyl)ureido]benzamido}-1,3,6-naphthalenetrisulfonic acid, trisodium salt]", "values": [{"measurement": "Code 026 (activity in wells)", "setting": "[4]", "result": "+2 wells"}, {"measurement": "Forssman Shock, harmonic mean death time", "setting": "[1]; route not given", "result": 32, "unit": "min"}]}]}
